Values of other authors, collected in US6399047B1, “Benzoxazole derivatives for use in cosmetic compositions and for stabilizing synthetic polymers” (3V Sigma S.p.A., priority 2000, dated 2002).

What was measured:
[1] = background statement
[2] = background statement; remark: listed apart in the source

solubility in solvents usually used in cosmetics [1]: very low
maximum absorption in the UV-A zone [2]: about 325 nm
SMILES: COc1ccc(C(=O)c2ccccc2)c(O)c1 [2-Hydroxy-4-methoxybenzophenone]
